In EP0125439A2, “3,6-Disubstituted-1,8-naphthalimides and methods for their production and use” (WARNER-LAMBERT COMPANY, priority 1983, dated 1984):
Where a name gives a salt, the structure may show the parent alone. Read-outs that look alike come from different tables or passages of the source.

Legend:
mouse tumor line L1210 = assay: growth inhibition of L1210 in suspension cell culture; assay type: cell-based; settings: read-out: L1210 Leukemia In Vitro ID50
Procedure: In another test protocol, growth-inhibitory effects are measured against the mouse tumor line L1210 in suspension cell culture. Cell cultures were initiated at a density of 50,000 cells/ml in medium RPMI 1630 supplemented with 10 percent fetal calf serum. Composition of this culture medium and details of the culture procedure follow the published method (Journal of the National Cancer Institute 36, 405-415, 1966). Cultures are maintained at 37 degrees in stationary suspension culture under a 95 percent air + 5 percent C02 atmosphere. Test compounds are added to treated cultures at the time of initiation, and are present continually. After 72 hours, 40-fold dilutions of drug- treated and untreated control cultures are prepared in 0.9 percent NaCl solution, and cells are counted on an electronic particle counter. The growth-inhibitory effects are expressed as IDSO values, namely, test compound inhibitory dosages or concentrations required to decrease cell count in treated cultures to 50 percent of the cell count of untreated control cultures.

HCT-8 cells = assay: in vitro proliferating human colon adenocarcinoma (HCA) cell screen; assay type: cell-based; settings: 60 - 65 hours with compound, nuclei count, 50% inhibition of growth, read-out: ID50 (the source's name)
Procedure: One test protocol is the in vitro proliferating human colon adenocarcinoma (HCA) cell screen. In this test, HCT-8 cells (HCA cell line received from Yale University) are trypsinized using trypsin-EDTA. A single cell suspension is achieved by passing the cells through a 26 gauge needle with a 20 cc syringe. A cell suspension is prepared using RPMI 1640 + 10% FCS + 50 ug/ml gentamicin sulfate with a cell concentration of approximately 30t000 cells/ml. The cell suspension is dispensed in Linbro 24-well plates; 1 ml/well. The plates are incubated for approximately 48 hours at 37 degrees C. in a 5% C02 atmosphere. At this time test compounds are added in the appropriate concentration. Five ul of the 200 ug/ml stock solution is added to each well in a primary test. Ten ul of the appropriate dilution is added to each well for a titration test. The plates are reincubated an additional 60 - 65 hours at 37 degrees C. in a 5% C02 atmosphere. The cells are lysed using a mix of cationic surfactant, glacial acetic acid and sodium chloride. Two ml of the lysed cell suspension from each well is added to 8 ml of diluent. The number of nuclei is determined using a Coulter counter (ZBI model), and a percent growth for each drug concentration is calculated. From this, an ID50 (molar concentration of compound that results in 50% inhibition of growth) is determined.

[1] = test system: lymphocytic leukemia P388; assay: in vivo lymphocytic leukemia P388 test; design: species or system CD2Fl mice; settings: survival time treated/control
Procedure: Another test protocol is the in vivo lymphocytic leukemia P388 test. The animals used are either male or female CD2Fl mice, six or seven animals per test group. The tumor transplant is by intraperitoneal injection of dilute ascitic fluid containing cells of lymphocytic leukemia P388. The test compounds are administered intraperitoneally once daily for five consecutive days at various doses following tumor inoculation. The animals are weighed and survivors are recorded on a regular basis for 30 days. A compound is designated "toxic" if, at a given dose, all animals died prior to four days after the first injection of drug. A ratio of survival time for treated (T)/control (C) animals is calculated. A criterion for efficacy is a ratio T/C times 100 greater than or equal to 125. See Cancer Chemotherapy Reports, Part 3, 3, 1 (1972) for a comprehensive discussion of the protocol.

B16 melanoma = assay: solid tumor B16 melanoma in mice; assay type: in vivo; settings: survival time treated/control
Procedure: Another test protocol utilizes the solid tumor B16 melanoma in mice. The tumor is inoculated by intraperitoneal injection. The test compounds are administered intraperitoneally once daily for nine consecutive days at various doses following tumor inoculation. A ratio of survival time for treated (T)/control (C) animals is calculated. A criterion for efficacy is a ratio T/C times 100 greater than or equal to 125. See Cancer Therapy Reviews, 7, 167 (1980) and references cited therein for further details and interpretation of the test.

[2] = test system: Penicillium avellaneum M2988; assay: in vitro antibacterial/antifungal (ABF) agar-disk diffusion assay; assay type: cell-based; settings: Hamigera avellanea, read-out: Inhibition Zone Diameter P. avellaneum; for zone of inhibition at 500000 µg/mL: Dose 500 mg/ml
Procedure: (§1) Another test protocol is the in vitro anti- bacterial/antifungal (ABF) test. Compounds are tested for antimicrobial activity in an agar-disk diffusion assay, a standard microbiological technique for testing antibiotics. After incubation of each culture with a test compound, a zone of inhibition is determined. The zone diameter (mm) of active compounds ranges from a minimum of 13.5 mm to as high as 60 mm, with a greater diameter reflecting higher activity. For convenience, values are reported for the gram-negative bacterial species (Escherichia coli 04863), two gram positive bacteria (Bacillus subtilis 04555 and Streptococcus faecalis 05045 utilizing AM-09 medium), and one mycelial fungus (Penicillium avellaneum M2988).

[3] = test system: Streptococcus faecalis 05045; assay: as above; assay type: cell-based; settings: Enterococcus faecalis, Dose 500 mg/ml, AM-09 medium, read-out: Inhibition Zone Diameter S. Faecalis
Procedure: as §1

Bacillus subtilis 04555 = assay: as above; assay type: cell-based; settings: Dose 100 mg/ml, read-out: Inhibition Zone Diameter B. Subtilis
Procedure: as §1

Escherichia coli 04863 = assay: as above; assay type: cell-based; settings: Dose 500 mg/ml, read-out: Inhibition Zone Diameter E. Coli
Procedure: as §1

SMILES | IC50 (mouse tumor line L1210; L1210, 72 h) [nM] | IC50 (HCT-8 cells) [nM] | P388 Leukemia In Mice T/C X100 ([1]; Dose 1.56 mg/kg intraperitoneally once daily for five days) [%] | B16 Melanoma T/C X100 (B16 melanoma; Dose 12.5 mg/kg intraperitoneally once daily for nine days) [%] | zone of inhibition at 500000 µg/mL [2] [mm] | zone of inhibition at 500000 µg/mL [3] [mm] | zone of inhibition at 100000 µg/mL (Bacillus subtilis 04555) [mm] | zone of inhibition at 500000 µg/mL (Escherichia coli 04863) [mm] | zone of inhibition at 3 g/mL ([2]; Dose 3000 mg/ml) [mm] | IC50 (mouse tumor line L1210; L1210, 72 hours, cell count 50 percent of untreated control) [nM] | P388 Leukemia In Mice T/C X100 ([1]; Dose 3.12 mg/kg intraperitoneally once daily for five days) [%] | B16 Melanoma T/C X100 (B16 melanoma; Dose 1.00 mg/kg intraperitoneally once daily for nine days) [%]
CCN(CC)CCN1C(=O)c2cc([N+](=O)[O-])cc3cc([N+](=O)[O-])cc(c23)C1=O [CH2CH2NEt2, N-[2-(Diethylamino)ethyl]-3,6-dinitro-1.8-naphthalimide Hydrochloride] | 350 | 960 | 155 |  |  |  |  |  |  |  |  | 
O=C1c2cc([N+](=O)[O-])cc3cc([N+](=O)[O-])cc(c23)C(=O)N1CCN1CCCCC1 [CH2CH2N(CH2)5, 3,6-Dinitro-N-[2-(piperidinyl)ethyl]-1,8-naphthalimide, Hydrochloride] | 290 | 480 |  | 135 | 26 | 19 | 24 | 16 |  |  |  | 
O=C1c2cc([N+](=O)[O-])cc3cc([N+](=O)[O-])cc(c23)C(=O)N1CCN1CCCC1 [CH2CH2N(CH2)4, 3,6-Dinitro-N[2-(pyrrolidinyl)ethyl]-1,8-naphthalimide Hydrocholoride] | 83 | 180 |  |  | 22 | 18 | 16 | 17 |  |  |  | 
O=C1c2cc([N+](=O)[O-])cc3cc([N+](=O)[O-])cc(c23)C(=O)N1CCN1CCOCC1 [3,6-Dinitro-N-[2-(morpholino)ethyl]-1,8-naphthalimide] | 1100 | 860 |  |  |  | 14 | 22 |  | 15 |  |  | 
CN(C)CCN1C(=O)c2cc([N+](=O)[O-])cc3cc([N+](=O)[O-])cc(c23)C1=O [CH2CH2NMe2, N-[2-(Dimethylamino)ethyl]-3,6,-dinitro-1,8-naphtalamide, Hydrochloride] |  |  |  |  |  |  |  |  |  | 36 | 167 | 125
